In publication PMC6830309, “Characterizing CDK8/19 Inhibitors through a NFκB-Dependent Cell-Based Assay” (Cells, 2019):
Like-named read-outs stand apart in the source and are kept apart here.

Legend:
[1] = tested on: TNFα-induced NFκB reporter activity in CDK8/19 dKO 293 cells; assay: NFκB-dependent luciferase reporter cell-based assay in CDK8/19 dKO 293 cells; design: species or system human; details: for effect on reporter induction in dKO cells: 293-dKO-NFκB-Luc cells; for IC50: Homo sapiens, read-out: NFkB activity Assay IC50
Protocol: (§1) The lentiviral construct pHAGE-NFkB-TA-LUC-UBC-dTomato was generated by Darrell Kotton […] Parental WT 293 cells or CDK8/19 dKO 293 cells were transduced with the lentivirus and dTomato-positive cells were sorted out using FACS Aria III. Single-cell clones were expanded and tested for luciferase reporter activities under TNFα- and/or senexin B-treated and untreated conditions with Bright-Glo Luciferase Assay System (Promega, Madison, WI, USA).
(§2) On day 1, cells were seeded in polyethyleneimine-coated 96-well plates at the density of 5 × 10^4 cells per well. […] Chemiluminescence intensity of each well was measured with ChemiDoc Touch™ (Bio-Rad) and quantified using ImageLab software (Bio-Rad). The raw data were then further processed with GraphPad Prism 7.0 (GraphPad Software, San Diego, CA, USA) for curve-fitting and IC50 calculation.

[2] = tested on: TNFα-induced NFκB reporter activity in WT 293 cells (CDK8/19 inhibition); assay: NFκB-dependent luciferase reporter cell-based assay in WT 293 cells; design: species or system human; details: for extent of inhibition of NFκB-dependent promoter activation: WT cells
Protocol: as §1, §2

[3] = tested on: alkaline phosphatase (ALPase) activity in ST2 cells; design: method as in PMID 23453217; details: concentration enhancing ALPase activity to 200% of the control; cited from earlier work
CXCL1 mRNA expression = assay: QPCR of TNFα-induced CXCL1 mRNA in 293 cells and CDK8/19 knockout derivatives; format: cell-based, human; details: dKO 293 cells; 1 μM senexin B
Protocol: (§3) Cells were seeded in 12-well plates at density of 3 × 10^5 cells per well in regular culture media 24 h before treatment. Cells were first pre-treated with 1 μM senexin B or solvent control DMSO (0.1%) for 1 h and then treated with or without 10 ng/mL TNF-α for 2 h. Total RNA was extracted using RNAeasy Mini Kit (Qiagen, Germantown, MD, USA) and 1 µg of total RNA was used to generate cDNA using iScript cDNA synthesis kit (Bio-Rad). Gene expression was quantified using iTaq Universal SYBR green super mix on the CFX384 Real time system (Bio-Rad). The primers used for real-time PCR were: CXCL1-F, […]; CXCL1-R, […]; IL8-F, […]; IL8-R, […]; RPL13A-F, […] and RPL13A-R, […].

IL8 mRNA expression = assay: QPCR of TNFα-induced IL8 mRNA in 293 cells and CDK8/19 knockout derivatives; format: cell-based, human; details: dKO 293 cells; 1 μM senexin B
Protocol: as §3

[4] = Homo sapiens, HEK293, 3 h, 293-WT-NFKB-LUC#8, 10 ng/mL TNFα 3 h, read-out: NFkB activity Assay IC50
[5] = 293-WT-NFKB-LUC#8, 10 ng/mL TNFα 3 h, read-out: NFkB activity Assay IC50
[6] = HEK293, 293-dKO-NFKB-LUC#2, 10 ng/mL TNFα 3 h

## NC(=O)c1sc2nccc(N3CCCN(c4ccccc4)CC3)c2c1N [15k]
[1]; 10 ng/mL TNFα 3 h
  effect on reporter induction in dKO cells: none of them showed any activity

## Cc1ccc(N2CCCN(c3ccnc4sc(C(N)=O)c(N)c34)CC2)cc1 [15n]
[2]; [4]
  IC50: 43.1 nM
[3]
  ALP activity Assay EC200: 115.4 nM

## COc1ccc(N2CCCN(c3ccnc4sc(C(N)=O)c(N)c34)CC2)cc1 [15q]
[2]; [4]
  IC50: 37.8 nM
[3]
  ALP activity Assay EC200: 88.1 nM

## CN(C)C(=O)c1ccc(N2CCCN(c3ccnc4sc(C(N)=O)c(N)c34)CC2)cc1 [15u]
[2]; [5]
  IC50: 10 nM
[2]; [4]
  IC50: 10.3 nM
[1]; 10 ng/mL TNFα 3 h
  effect on reporter induction in dKO cells: none of them showed any activity
[1]; [6]
  IC50: > 1000 nM
[3]
  ALP activity Assay EC200: 31.9 nM

## CNC(=O)c1ccc(N2CCCN(c3ccnc4sc(C(N)=O)c(N)c34)CC2)cc1 [15v]
[2]; [4]
  IC50: 23.1 nM
[3]
  ALP activity Assay EC200: 54.2 nM

## CN(C)C(=O)Cc1ccc(N2CCCN(c3ccnc4sc(C(N)=O)c(N)c34)CC2)cc1 [15w]
[2]; [5]
  IC50: 4 nM
[2]; [4]
  IC50: 4.1 nM
[1]; 10 ng/mL TNFα 3 h
  effect on reporter induction in dKO cells: none of them showed any activity
[1]; [6]
  IC50: > 1000 nM
[3]
  ALP activity Assay EC200: 6.6 nM

## CC(C)C[C@H](NC(=O)[C@H](Cc1ccccc1)NC(=O)c1cnccn1)B(O)O [Bortezomib, bortezomib]
[2]; [4]
  IC50: 311 nM
[1]; [6]
  IC50: 173 nM

## CCc1cnn2c(NCc3ccc[n+]([O-])c3)cc(N3CCCC[C@H]3CCO)nc12 [Dinaciclib]
[2]; 10 ng/mL TNFα 3 h
  extent of inhibition of NFκB-dependent promoter activation: completely inhibited
[1]; dKO cells, 10 ng/mL TNFα 3 h
  extent of inhibition of NFκB-dependent promoter activation: completely inhibited

## CN1CC[C@H](c2c(O)cc(O)c3c(=O)cc(-c4ccccc4Cl)oc23)[C@H](O)C1 [Flavopiridol]
[2]; [4]
  IC50: 34 nM
[2]; 10 ng/mL TNFα 3 h
  extent of inhibition of NFκB-dependent promoter activation: completely inhibited
[1]; [6]
  IC50: 26 nM
[1]; dKO cells, 10 ng/mL TNFα 3 h
  extent of inhibition of NFκB-dependent promoter activation: completely inhibited

## CC(=O)c1c(C)c2cnc(Nc3ccc(N4CCNCC4)cn3)nc2n(C2CCCC2)c1=O [Palbociclib, palbociclib]
[2]; [4]
  IC50: > 2000 nM
[2]; 10 ng/mL TNFα 3 h
  extent of inhibition of NFκB-dependent promoter activation: only weak inhibitory effects at high concentrations
[1]; [6]
  IC50: > 2000 nM
[1]; dKO cells, 10 ng/mL TNFα 3 h
  extent of inhibition of NFκB-dependent promoter activation: only weak inhibitory effects at high concentrations

## CN(C)C/C=C/C(=O)Nc1ccc(C(=O)Nc2cccc(Nc3ncc(Cl)c(-c4c[nH]c5ccccc45)n3)c2)cc1 [THZ1]
[2]; [4]
  IC50: 220 nM
[2]; 10 ng/mL TNFα 3 h
  extent of inhibition of NFκB-dependent promoter activation: completely inhibited
[1]; [6]
  IC50: 352 nM
[1]; dKO cells, 10 ng/mL TNFα 3 h
  extent of inhibition of NFκB-dependent promoter activation: completely inhibited

## Cc1ccc(S(=O)(=O)N[C@@H](Cc2ccccc2)C(=O)CCl)cc1 [TPCK, tosyl-L-phenylalanyl-chloromethane ketone]
[2]; [4]
  IC50: 13000 nM
[2]; 10 ng/mL TNFα 3 h
  extent of inhibition of NFκB-dependent promoter activation: complete suppression
[1]; [6]
  IC50: 12000 nM
[1]; dKO cells, 10 ng/mL TNFα 3 h
  extent of inhibition of NFκB-dependent promoter activation: complete suppression

## CN(C)C1CC23CCC4(O2)C(=CCC2(C)C(c5ccc6ccncc6c5)=CCC24)C=C3C(O)C1O (centres unmarked) [dCA, didehydro-cortistatin A]
[2]; Homo sapiens, HEK293, 3 h, read-out: NFkB activity Assay IC50
  IC50: 1.3 nM
[2]; WT reporter cells, 10 ng/mL TNFα 3 h
  maximal (plateau) inhibition of TNFα-induced reporter induction: ~ 80%
[1]; 10 ng/mL TNFα 3 h
  effect on reporter induction in dKO cells: no effect
[1]; HEK293, 3 h
  IC50: > 1000 nM

## CN1CCN(C(=O)c2ccc3cc(CCNc4ncnc5ccc(C#N)cc45)ccc3c2)CC1 [senexin B]
CXCL1 mRNA expression
  inhibitory effect on TNFα induction of CXCL1: completely abolished
IL8 mRNA expression
  inhibitory effect on TNFα induction of IL8: completely abolished
[2]; [4]
  IC50: 114 nM
[2]; Homo sapiens, HEK293, 3 h, clone WT-#1, 10 ng/mL TNFα 3 h, read-out: IC50 for inhibition of TNFα-induced luciferase expression
  IC50: 95 nM
[2]; Homo sapiens, HEK293, 3 h, clone WT-#2, 10 ng/mL TNFα 3 h, read-out: IC50 for inhibition of TNFα-induced luciferase expression
  IC50: 135 nM
[2]; Homo sapiens, HEK293, 3 h, clone WT-#9, 10 ng/mL TNFα 3 h, read-out: IC50 for inhibition of TNFα-induced luciferase expression
  IC50: 187 nM
[2]; all the WT clones, 1 μM senexin B
  inhibition of TNFα-induced luciferase expression: 70–80%
[1]; [6]
  IC50: > 1000 nM
[1]; dKO cells, 1 μM senexin B, 10 ng/mL TNFα
  inhibition of TNFα-induced luciferase induction: not in dKO cells
